In patent US4847253A, “Antiparkinson ergoline derivatives” (Farmitalia Carlo Erba, priority 1987, dated 1989):
“Also recorded” adds a separate entry of the source.

Experiments:
6-OHDA lesioned rats = assay: Contralateral turning behavior in 6-OHDA lesioned rats; type: in vivo, Male (ICR) Wistar rats; conditions: scored for six hours
Method: The profile of dopamine agonists of the compound of the formula I was preliminary discovered by an induction of contralateral turning in rats with unilateral 6-hydroxy dopamine-induced lesions of the dopaminergic nigrostriatal pathway (according to the principles of U. Ungerstedt et al., Brain Research 24 (1970); p. 485).
Male (ICR) Wistar rats (290-310 g) anaesthetized i.p. with 50 mg/kg pentobarbital sodium were placed in a Stoelting stereotaxis frame and unilaterally injected with 6-hydroxy-dopamine (6-OHDA) in substantia nigra, pars compacta (8 μg of free base in 4 μl of saline kept ice cold with 0.2% ascorbic acid at the rate of 1 μl/min.). The neurotoxin was injected via a 10 μl Hamilton syringe under the following coordinates: A, 3.7 mm anterior to interaural line; V. 2.2 mm dorsal to interaural line; L, 2.2 mm from midline, according to Paxinos and Watson (The rat brain in stereotaxic coordinates. Academic Press, Sydney, Australia, 1982).
The needle was left in place 5 minutes further before being slowly withdrawn.
Following recovery from anaesthesia, rats were housed in a cage and given access to food and water ad libitum. After a 3 week recovery, rats were injected with apomorphine (0.5 mg/kg s.c.) and immediately put in automated rotometer bowls with a printing unit for 3 hours.
Only rats showing contralateral turning behavior totalling at least 250 complete turns within the control time, were used for the test with the compounds.
The test compounds were injected subcutaneously and rotational behavior scored each time for six hours.
All tested compounds were administered in a fixed volume (2 ml/kg body weight).

[1] = known side effects, background; cited from earlier work
[2] = test system: apomorphine-induced climbing; assay: Antagonism to apomorphine-induced climbing in normal mice; type: in vivo; conditions: for ED50: Mus musculus, po
Method: The anti-dopaminergic activity in normal mice of the ergoline derivatives according to the invention was assessed by the antagonism to apomorphine-induced climbing (Protais, P. et al., Psychopharmacology, 50, 1, 1976).

Reserpine-Treated Mice = assay: Locomotor activity in reserpine-treated mice; type: in vivo, Male mice, Crl:CD-1 (ICR) BR strain; conditions: for No. of counts in 85 min.: reserpine 5 mg/kg i.p. pretreated; for locomotor activity in akinetic reserpinized mice: result in words, FCE 23884 at 1 mg/kg s.c.
Method: Male mice, (22-25 g) of the Crl:CD^R -1 (ICR) BR strain, were used. Injection volume for drugs was 0.5 ml/100 g body weight. Locomotor activity in mice was examined from 5 up to 90 min. by use of two "Columbus activity Meters" placing 5 animals per cage after each treatment. Comparison was made with reserpine treated animals (5 mg/kg i.p.) receiving saline (controls).
Groups of five mice were used each time. Eighteen hours reserpine pretreated mice were subcataneously injected with the test compound or apomorphine or saline.
Five minutes later, the animals were tested for locomotor activity according D. Hinzen et al., European Journal of Pharmacology 131 (1986) 75-86.

non-MPTP treated monkeys = assay: Behavior in non-MPTP treated monkeys; type: in vivo; conditions: s.c.
MPTP treated monkeys = assay: MPTP-induced parkinsonism in monkey model; type: in vivo, Marmosets and cynomolgus
Description: In nonhuman primates MPTP (1-methyl-4-phenyl-1,2,3,6-tetrahydropyridine) selectively destroys dopaminergic neurons in the substantia nigra pars compacta as has been shown in different primate species (1) (2) including the common marmoset and cynomolgus.
Repeated administration of MPTP produces varying degrees of akinesia or bradykinesia accompanied by rigidity of limbs, loss of vocalization and postural tremor.
Marmosets and cynomolgus were employed in these experiments. Each animal was administered a variable dosage regime showing them to have an individual susceptibility to MPTP according to Jenner et al. (3).
For the marmoset the cumulative dose was between 11-29 mg/kg i.p. over time courses of 4-10 days for three marmosets and 10-12 mg/kg i.p. for two cynomolgus in 4 days. All the monkeys were severely affected, completely akinetic and rigid with loss of vocalization, and blink reflex, with some postural tremor and were rendered unable to eat by themselves. After two or three days of wash-out to avoid the acute effect of MPTP administration, compound FCE 23884 was injected subcutaneously once a day starting from the dose 0.1 mg/kg up to 2 mg/kg.
Saline was administered in alternate fashion every three treatements to avoid the normal described improvement after the suspension of MPTP administration.

Compound	No. of contralateral turns (X) in turning rats (6-OHDA lesioned rats; 1.0 mg/kg s.c.)	Turning rats/Treated rats (6-OHDA lesioned rats; 1.0 mg/kg s.c.)	ED50 [2]	locomotor activity in akinetic reserpinized mice (Reserpine-Treated Mice)	also measured
CC(C)C[C@H]1C(=O)N2CCC[C@H]2[C@]2(O)O[C@](NC(=O)[C@@H]3C=C4c5cccc6[nH]c(Br)c(c56)C[C@H]4N(C)C3)(C(C)C)C(=O)N12 [Bromocriptine, reference compound]	1922.3	6/9			adverse effects [1]: emesis, hypotension, cardiac arrhythmia, digital vasospasm in cold weather, conjunctival irritation, diplopia, nasal stuffiness, constipation and syndrome of bilateral red, tender edema of the lower limbs and neuroendocrine alterations; Apomorphine antagonism (ED50) ([2]; p.o.): Inactive at 10 mg/kg
CN1C(=O)CN(C[C@@H]2C[C@@H]3c4cccc5[nH]cc(c45)C[C@H]3N(C)C2)CC1=O [FCE 23710, 6-Methyl-8β-(3,5-dioxo-4-methyl-piperazin-1-yl-methyl)-ergoline]	1829.2	4/4	2.2 mg/kg		
CN1C[C@H](CN2CC(=O)NC(=O)C2)C=C2c3cccc4[nH]cc(c34)C[C@H]21 [FCE 23884, 6-Methyl-9,10-didehydro-8β-(3,5-dioxo-piperazin-1-yl-methyl)-ergoline]	2146	5/5	0.5 mg/kg	elicits locomotor activity as does apomorphine	No. of counts in 85 min. (Reserpine-Treated Mice; 1.0 mg/kg s.c.): 625; behavioral effect in non-MPTP treated monkeys (non-MPTP treated monkeys): sedative effect in a dose-dependent fashion; also recorded: antidopaminergic in non MPTP-treated monkeys; No. of contralateral turns (X) in turning rats (6-OHDA lesioned rats; 0.1 mg/kg s.c.): 1317.5; Turning rats/Treated rats (6-OHDA lesioned rats; 0.1 mg/kg s.c.): 9/10; No. of contralateral turns (X) in turning rats (6-OHDA lesioned rats; 0.5 mg/kg s.c.): 2591.7; Turning rats/Treated rats (6-OHDA lesioned rats; 0.5 mg/kg s.c.): 10/10; reversal of akinesia, time of onset (MPTP treated monkeys; highest dose, 2 mg/kg s.c.): 5 min; reversal of akinesia, time of onset (MPTP treated monkeys; lowest dose, 0.1 mg/kg s.c.): 30 min; effect in lesioned / MPTP treated monkeys (MPTP treated monkeys; s.c.): dopaminergic effect in lesioned animals; also recorded: dopaminergic agent in the MPTP treated monkeys; Reversal of akinesia (MPTP treated monkeys; s.c. once a day, 0.1 mg/kg up to 2 mg/kg): Reversal of akinesia in a dose-dependent fashion was observed
CN1C[C@H](CN2CC(=O)NC(=O)C2)C[C@@H]2c3cccc4c3c(cn4C)C[C@H]21 [FCE 23952, 1,6-Dimethyl-8β-(3,5-dioxo-piperazin-1-yl-methyl)-ergoline]	710.5	4/4	0.9 mg/kg		
CN1CCc2cccc3c2[C@H]1Cc1ccc(O)c(O)c1-3 [apomorphine, reference compound]				elicits locomotor activity	No. of counts in 85 min. (Reserpine-Treated Mice; 0.05 mg/kg s.c.): 413
